As a reminder, the melting point is the temperature, or range, at which the solid turns liquid.

The record followed here is patent US8304406B2, “Compounds for treating pulmonary hypertension” (Bayer Intellectual Property GmbH, priority 2006, dated 2012).

Data set [1] deals with monocrotaline (MCT) induced pulmonary arterial hypertension in rats. Briefly: Pulmonary artery pressure in monocrotaline treated rats. The format is in vivo, rat (male Sprague Dawley). Here is the method:
Pulmonary Artery Pressure in Monocrotaline Treated Rats
Male Sprague Dawley rats (250-300 g) are treated with monocrotaline 60 mg/kg subcutanously (=day 0). On day 14 after monocrotaline injection treatment the compound/combination to be tested is administered. On day 28 hemodynamic parameters, i.e. right ventricular pressure, systemic blood pressure, heart rate, arterial and venous oxygen saturation are measured and compared with untreated control animals.
The mentioned monocrotaline (MCT) treated rats are randomized to receive example 14 [4-(4-chlorophenylamino)-7-(2-methylaminocarbonyl-4-pyridylmethoxy)furo-[2,3-d]pyridazine] 10 mg/kg or vehicle by gavage once daily after the onset of moderate pulmonary arterial hypertension starting 14 days after the injection of MCT until the final hemodynamic measurement on day 28. In animals with MCT induced pulmonary arterial hypertension treatment with example 14 markedly decreases right ventricular systolic pressure, compared to vehicle treated animals (control: 25±0.56 mmHg; example 14: 42.04±3.21 mmHg vs. placebo: 71.02±5.38 mmHg) (mean±SEM). This effect of example 14 is paralleled by an inhibition of right ventricular hypertrophy (right ventricle/left ventricle+septum ratio control: 0.26±0.01; example 14: 0.32±0.02 vs. placebo: 0.54±0.04).

Compound `NC(=O)c1cc(COc2nnc(Nc3ccc(Cl)cc3)c3ccsc23)ccn1` gave a melting point of 233 °C.
The same measure, in the same setting: the figure for `Clc1ccc(Nc2nnc(OCc3ccncc3)c3sccc23)cc1` is 203 to 205 °C (dec.).
For the compound `CNC(=O)c1cc(COc2nnc(Nc3ccc(Cl)cc3)c3ccoc23)ccn1` [Example 14, 4-(4-chlorophenylamino)-7-(2-methylaminocarbonyl-4-pyridylmethoxy)furo-[2,3-d]pyridazine], in data set [1] (10 mg/kg by gavage once daily from day 14 to day 28, day 28, control 0.26±0.01, placebo 0.54±0.04), the “right ventricle/left ventricle+septum ratio (right ventricular hypertrophy)” value is recorded as 0.32±0.02. Besides, the “right ventricular systolic pressure” value in data set [1] (10 mg/kg by gavage once daily from day 14 to day 28, measured day 28, mean±SEM, control 25±0.56, placebo 71.02±5.38) is 42.04±3.21 mmHg.
